# Data: ChEMBL document CHEMBL1201862, “PubChem BioAssay data set” (2004)
# Active and inactive are the calls of the source.
# Experiments:
# Exodeoxyribonuclease V = target: T1, Exodeoxyribonuclease V (Escherichia coli (strain K12), UniProt P04993+P07648+P08394); assay: RecBCD inhibition via phage-restricted bacterial growth – absorbance, V66 E. coli, mutant T4 phage, counter-screen for AddAB inhibitor project, dose response (AID 492957); assay type: functional, cell-based, Escherichia coli str. K-12 substr. MG1655
# T1 sequence (P04993 whole entry): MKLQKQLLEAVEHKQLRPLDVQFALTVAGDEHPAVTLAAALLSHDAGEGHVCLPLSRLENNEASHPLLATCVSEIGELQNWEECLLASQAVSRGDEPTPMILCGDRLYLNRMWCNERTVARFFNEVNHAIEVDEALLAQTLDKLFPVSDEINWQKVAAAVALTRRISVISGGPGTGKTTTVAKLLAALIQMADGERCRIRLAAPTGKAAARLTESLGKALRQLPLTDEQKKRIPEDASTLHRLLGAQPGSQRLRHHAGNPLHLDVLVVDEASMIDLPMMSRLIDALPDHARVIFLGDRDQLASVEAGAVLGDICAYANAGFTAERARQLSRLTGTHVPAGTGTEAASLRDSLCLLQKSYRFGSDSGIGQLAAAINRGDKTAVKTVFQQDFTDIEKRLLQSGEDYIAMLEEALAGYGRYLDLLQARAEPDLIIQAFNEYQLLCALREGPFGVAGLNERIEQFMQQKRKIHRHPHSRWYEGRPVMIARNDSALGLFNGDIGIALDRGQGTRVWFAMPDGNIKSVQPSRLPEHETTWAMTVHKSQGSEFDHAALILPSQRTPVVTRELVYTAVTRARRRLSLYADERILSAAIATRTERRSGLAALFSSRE
# T1 sequence (P07648 whole entry): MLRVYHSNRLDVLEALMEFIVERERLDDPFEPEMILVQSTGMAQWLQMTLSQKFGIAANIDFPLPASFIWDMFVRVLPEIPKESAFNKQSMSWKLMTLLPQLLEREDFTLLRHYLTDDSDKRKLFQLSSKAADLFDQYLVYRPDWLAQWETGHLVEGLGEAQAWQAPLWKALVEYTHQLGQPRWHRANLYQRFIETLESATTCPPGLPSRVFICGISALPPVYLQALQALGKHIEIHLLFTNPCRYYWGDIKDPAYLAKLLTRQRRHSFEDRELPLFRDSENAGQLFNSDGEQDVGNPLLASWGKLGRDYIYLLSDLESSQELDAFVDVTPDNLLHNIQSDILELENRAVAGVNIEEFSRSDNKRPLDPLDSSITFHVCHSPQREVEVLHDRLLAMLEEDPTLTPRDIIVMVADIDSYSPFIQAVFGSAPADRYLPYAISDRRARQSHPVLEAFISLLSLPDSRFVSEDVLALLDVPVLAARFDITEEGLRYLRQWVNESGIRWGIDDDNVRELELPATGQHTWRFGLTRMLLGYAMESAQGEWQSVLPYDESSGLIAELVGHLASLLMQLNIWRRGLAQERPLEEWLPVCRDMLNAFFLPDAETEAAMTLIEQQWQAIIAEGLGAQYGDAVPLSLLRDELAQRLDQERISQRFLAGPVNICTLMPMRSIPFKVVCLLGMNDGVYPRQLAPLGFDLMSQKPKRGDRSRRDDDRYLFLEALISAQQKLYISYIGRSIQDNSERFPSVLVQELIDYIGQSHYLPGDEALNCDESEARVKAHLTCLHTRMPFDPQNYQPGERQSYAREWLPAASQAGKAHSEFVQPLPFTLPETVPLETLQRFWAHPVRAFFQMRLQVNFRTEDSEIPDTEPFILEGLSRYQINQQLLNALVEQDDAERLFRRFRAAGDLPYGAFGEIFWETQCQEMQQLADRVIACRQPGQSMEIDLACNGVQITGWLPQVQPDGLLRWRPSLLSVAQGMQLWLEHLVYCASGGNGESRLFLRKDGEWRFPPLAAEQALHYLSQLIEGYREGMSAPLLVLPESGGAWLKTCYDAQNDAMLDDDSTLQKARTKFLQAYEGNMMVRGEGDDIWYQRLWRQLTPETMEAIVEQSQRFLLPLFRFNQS
# T1 sequence (P08394 whole entry): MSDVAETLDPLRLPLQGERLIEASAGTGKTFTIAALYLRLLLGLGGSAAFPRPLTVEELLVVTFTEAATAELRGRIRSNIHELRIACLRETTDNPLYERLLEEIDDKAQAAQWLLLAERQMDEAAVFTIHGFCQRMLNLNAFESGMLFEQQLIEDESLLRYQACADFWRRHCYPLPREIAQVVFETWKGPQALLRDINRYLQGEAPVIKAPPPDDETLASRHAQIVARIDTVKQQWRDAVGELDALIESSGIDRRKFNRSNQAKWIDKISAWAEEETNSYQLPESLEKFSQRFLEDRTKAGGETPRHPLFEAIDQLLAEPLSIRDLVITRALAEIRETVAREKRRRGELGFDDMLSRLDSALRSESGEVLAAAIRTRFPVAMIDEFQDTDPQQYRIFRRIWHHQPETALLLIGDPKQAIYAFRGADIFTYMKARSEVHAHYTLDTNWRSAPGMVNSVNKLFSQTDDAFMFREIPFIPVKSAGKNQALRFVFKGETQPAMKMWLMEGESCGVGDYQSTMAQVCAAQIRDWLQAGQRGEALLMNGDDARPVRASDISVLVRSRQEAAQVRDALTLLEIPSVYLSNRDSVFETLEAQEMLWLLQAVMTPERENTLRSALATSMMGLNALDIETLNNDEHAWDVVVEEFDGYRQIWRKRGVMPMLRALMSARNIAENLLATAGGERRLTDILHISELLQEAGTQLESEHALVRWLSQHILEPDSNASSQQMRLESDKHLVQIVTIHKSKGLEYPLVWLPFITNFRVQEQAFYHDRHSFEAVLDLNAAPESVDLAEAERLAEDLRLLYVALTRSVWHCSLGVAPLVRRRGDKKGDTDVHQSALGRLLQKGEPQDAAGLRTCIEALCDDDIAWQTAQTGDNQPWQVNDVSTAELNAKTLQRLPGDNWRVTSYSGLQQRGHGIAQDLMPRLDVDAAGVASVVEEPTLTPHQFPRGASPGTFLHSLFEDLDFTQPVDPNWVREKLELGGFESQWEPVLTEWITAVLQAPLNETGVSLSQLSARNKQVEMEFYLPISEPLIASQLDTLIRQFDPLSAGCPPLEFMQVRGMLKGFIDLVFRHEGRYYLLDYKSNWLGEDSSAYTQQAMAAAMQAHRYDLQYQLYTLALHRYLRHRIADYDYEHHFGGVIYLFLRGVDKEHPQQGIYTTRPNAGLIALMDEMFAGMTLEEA
# [1] = Counterscreen for AddAB inhibitors: absorbance-based bacterial cell-based high throughput dose response assay for inhibitors of bacterial viability. [Related pubchem assays (depositor defined):AID435030, AID449728, AID449731, AID488942, AID488955, AID488956]; assay type: functional
# Albumin = Albumin (Bos taurus, UniProt P02769); assay: Counterscreen for inhibitors of T-cell receptor (TCR)-CD3 interaction: Fluorescence-based biochemical high throughput dose response assay to identify inhibitors of T-cell receptor (TCR)-CD3 interaction using a TAMRA-labeled BSA probe.; assay type: functional
# Chain of Albumin (P02769 whole entry): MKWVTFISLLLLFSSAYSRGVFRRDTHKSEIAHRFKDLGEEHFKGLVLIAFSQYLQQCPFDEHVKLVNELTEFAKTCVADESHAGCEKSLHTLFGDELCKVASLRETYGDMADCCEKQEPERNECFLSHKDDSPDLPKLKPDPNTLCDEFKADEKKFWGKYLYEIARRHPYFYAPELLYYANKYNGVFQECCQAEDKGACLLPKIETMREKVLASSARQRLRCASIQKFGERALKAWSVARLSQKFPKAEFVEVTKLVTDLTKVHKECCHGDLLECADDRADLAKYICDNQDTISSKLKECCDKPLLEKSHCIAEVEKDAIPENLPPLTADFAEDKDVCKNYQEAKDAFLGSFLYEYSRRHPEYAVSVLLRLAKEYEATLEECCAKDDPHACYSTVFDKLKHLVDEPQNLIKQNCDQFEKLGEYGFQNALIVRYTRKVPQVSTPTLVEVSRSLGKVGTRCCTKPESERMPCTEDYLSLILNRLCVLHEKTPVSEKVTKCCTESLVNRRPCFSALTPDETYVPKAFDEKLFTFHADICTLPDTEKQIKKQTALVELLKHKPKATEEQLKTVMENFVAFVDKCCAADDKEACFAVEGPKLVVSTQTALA
# Beta-lactamase [2] = target: Beta-lactamase (Salmonella choleraesuis (strain SC-B67), UniProt Q5J463); assay: Epi-absorbance-based counterscreen for selective VIM-2 inhibitors: dose response biochemical high throughput screening assay to identify inhibitors of TEM-1 serine-beta-lactamase.
# Chain of Beta-lactamase (Salmonella choleraesuis (strain SC-B67), UniProt Q5J463) (Q5J463 whole entry): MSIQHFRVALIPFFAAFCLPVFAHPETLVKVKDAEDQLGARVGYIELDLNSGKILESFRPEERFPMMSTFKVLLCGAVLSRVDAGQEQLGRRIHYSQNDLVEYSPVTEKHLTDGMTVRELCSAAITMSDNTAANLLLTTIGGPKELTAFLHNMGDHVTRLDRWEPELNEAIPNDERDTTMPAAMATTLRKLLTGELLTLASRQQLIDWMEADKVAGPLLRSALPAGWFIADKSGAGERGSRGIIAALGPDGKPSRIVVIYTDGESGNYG
# Beta-lactamase [3] = target: T2, Beta-lactamase (Pseudomonas aeruginosa, UniProt Q79MP6); assay: […] counterscreen for selective VIM-2 inhibitors: dose response biochemical high throughput screening assay to identify inhibitors of IMP-1 metallo-beta-lactamase.
# T2 sequence (Q79MP6 whole entry): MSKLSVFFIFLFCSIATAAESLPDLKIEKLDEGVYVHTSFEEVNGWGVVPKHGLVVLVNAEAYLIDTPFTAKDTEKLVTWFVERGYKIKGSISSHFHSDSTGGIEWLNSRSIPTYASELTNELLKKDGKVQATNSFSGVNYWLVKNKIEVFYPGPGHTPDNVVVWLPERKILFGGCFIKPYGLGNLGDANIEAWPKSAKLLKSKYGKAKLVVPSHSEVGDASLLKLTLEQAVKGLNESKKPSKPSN
# Beta-lactamase [4] = target: T2, Beta-lactamase; assay: inhibition of IMP-1 beta-lactamase activity – biochemical, epi-absorbance, selectivity assay for VIM-2 inhibitor project, dose response (AID 1920)
# [5] = target: T3, Voltage-gated N-type calcium channel alpha-1B subunit/Amyloid beta A4 precursor protein-binding family A member 1 (Homo sapiens, UniProt Q00975+Q02410); assay type: protein assay
# T3 sequence (Q00975 whole entry): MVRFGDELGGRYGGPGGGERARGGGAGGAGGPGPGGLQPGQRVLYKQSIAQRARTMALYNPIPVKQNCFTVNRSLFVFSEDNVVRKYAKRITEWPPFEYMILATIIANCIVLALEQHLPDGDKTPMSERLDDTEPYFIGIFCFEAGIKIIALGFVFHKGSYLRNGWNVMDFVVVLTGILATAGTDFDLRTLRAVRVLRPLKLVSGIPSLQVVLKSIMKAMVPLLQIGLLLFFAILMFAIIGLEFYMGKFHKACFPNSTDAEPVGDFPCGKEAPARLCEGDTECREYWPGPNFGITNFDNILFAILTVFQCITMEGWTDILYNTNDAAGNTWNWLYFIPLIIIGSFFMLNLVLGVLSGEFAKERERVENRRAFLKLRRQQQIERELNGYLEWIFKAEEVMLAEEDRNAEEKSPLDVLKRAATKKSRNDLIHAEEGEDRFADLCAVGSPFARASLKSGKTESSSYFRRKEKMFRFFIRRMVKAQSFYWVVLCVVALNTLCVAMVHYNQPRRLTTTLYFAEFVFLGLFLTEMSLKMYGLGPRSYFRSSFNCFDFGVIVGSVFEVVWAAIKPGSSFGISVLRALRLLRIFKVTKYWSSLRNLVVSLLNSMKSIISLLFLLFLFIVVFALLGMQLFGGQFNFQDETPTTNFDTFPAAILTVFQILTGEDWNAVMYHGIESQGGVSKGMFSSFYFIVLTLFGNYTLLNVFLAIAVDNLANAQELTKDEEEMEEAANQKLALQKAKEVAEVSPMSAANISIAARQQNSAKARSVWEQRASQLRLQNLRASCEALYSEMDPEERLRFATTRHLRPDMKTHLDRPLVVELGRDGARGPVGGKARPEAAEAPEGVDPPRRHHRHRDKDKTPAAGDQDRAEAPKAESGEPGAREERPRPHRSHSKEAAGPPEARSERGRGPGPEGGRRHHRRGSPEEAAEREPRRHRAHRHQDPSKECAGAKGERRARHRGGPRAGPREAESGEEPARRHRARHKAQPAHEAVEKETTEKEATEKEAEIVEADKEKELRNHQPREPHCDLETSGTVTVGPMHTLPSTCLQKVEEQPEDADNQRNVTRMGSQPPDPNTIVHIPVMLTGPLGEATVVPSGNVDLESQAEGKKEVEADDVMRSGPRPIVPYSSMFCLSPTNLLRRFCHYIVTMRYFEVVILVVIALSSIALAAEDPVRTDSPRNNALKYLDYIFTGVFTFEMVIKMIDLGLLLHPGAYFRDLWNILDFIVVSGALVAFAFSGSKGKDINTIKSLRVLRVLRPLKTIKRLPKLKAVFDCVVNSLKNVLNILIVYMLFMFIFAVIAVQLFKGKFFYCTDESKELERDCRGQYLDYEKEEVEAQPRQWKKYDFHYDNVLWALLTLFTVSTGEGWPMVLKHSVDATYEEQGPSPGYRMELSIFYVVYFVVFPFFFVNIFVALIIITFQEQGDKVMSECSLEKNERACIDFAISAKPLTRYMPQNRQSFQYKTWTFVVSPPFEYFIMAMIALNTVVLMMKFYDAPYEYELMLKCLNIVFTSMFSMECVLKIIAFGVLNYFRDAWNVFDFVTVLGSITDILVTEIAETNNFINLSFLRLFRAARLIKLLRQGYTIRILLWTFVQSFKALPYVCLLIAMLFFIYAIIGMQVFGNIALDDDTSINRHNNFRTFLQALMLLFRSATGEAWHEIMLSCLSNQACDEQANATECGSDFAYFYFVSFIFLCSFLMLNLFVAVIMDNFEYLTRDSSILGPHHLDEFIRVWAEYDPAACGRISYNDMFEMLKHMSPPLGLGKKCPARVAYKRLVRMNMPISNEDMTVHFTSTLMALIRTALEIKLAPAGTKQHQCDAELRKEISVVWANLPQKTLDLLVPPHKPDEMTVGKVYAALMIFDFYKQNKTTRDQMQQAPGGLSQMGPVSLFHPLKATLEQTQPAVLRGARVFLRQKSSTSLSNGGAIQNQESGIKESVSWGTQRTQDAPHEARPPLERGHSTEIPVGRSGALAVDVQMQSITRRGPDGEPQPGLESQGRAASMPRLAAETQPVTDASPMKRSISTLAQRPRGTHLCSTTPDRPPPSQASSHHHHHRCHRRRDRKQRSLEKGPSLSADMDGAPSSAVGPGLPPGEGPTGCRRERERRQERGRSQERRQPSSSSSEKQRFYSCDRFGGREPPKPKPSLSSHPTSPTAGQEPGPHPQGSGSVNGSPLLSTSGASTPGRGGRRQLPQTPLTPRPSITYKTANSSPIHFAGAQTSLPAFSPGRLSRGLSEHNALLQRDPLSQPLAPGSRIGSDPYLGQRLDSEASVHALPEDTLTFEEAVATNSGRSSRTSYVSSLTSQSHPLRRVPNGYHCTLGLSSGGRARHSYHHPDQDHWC
# T3 sequence (Q02410 whole entry): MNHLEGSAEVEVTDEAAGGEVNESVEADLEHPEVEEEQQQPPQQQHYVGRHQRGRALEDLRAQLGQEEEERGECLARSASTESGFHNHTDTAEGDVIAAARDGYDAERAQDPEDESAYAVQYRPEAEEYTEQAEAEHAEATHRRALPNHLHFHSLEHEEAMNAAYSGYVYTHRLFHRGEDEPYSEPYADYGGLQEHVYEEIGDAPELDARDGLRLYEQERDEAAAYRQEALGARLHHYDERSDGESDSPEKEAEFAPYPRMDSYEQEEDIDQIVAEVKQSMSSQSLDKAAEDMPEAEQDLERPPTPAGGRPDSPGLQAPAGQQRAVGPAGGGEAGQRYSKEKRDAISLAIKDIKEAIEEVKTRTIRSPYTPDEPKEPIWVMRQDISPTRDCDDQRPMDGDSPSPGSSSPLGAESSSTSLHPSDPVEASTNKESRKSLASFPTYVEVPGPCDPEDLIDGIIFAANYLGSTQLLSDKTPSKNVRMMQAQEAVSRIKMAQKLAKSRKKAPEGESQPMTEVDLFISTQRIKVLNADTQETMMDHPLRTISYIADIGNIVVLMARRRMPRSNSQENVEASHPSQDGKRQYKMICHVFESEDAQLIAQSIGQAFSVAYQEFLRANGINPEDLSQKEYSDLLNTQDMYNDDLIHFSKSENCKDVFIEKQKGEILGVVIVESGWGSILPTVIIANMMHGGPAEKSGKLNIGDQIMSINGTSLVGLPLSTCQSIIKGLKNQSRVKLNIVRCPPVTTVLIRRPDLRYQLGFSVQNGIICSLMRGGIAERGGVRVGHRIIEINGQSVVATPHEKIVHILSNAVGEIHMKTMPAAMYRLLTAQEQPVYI
# [6] = alpha-synuclein stem-loop luciferase translation blockers – H4 neuroglioma cells, luminescence, confirmation (AID 1988); assay type: functional, cell-based
# [7] = viability loss in HEK293T cells – cell-based, cherry-picks, cytotoxicity control for HIV Vif inhibitor project, dose response (AID 652208); assay type: functional
# [8] = Luminescence Cell-Based Dose Response HTS to Identify Inhibitors of 5'UTR Stem-Loop Driven Prion Protein mRNA Translation in H4 Neuroglioblastoma Cells. [Related pubchem assays: 1827 (Project Summary), 1813 (Primary HTS)]; assay type: functional
# [9] = target: T3, Voltage-gated N-type calcium channel alpha-1B subunit/Amyloid beta A4 precursor protein-binding family A member 1; assay type: protein assay; remark: listed apart in the source
# [10] = luciferase reporter signal suppression in cells – H4 neuroglioma cells, luminescence, dose response (AID 1990); assay type: functional, cell-based
# [11] = blockers of HIV-1 envelope-mediated cell-cell fusion – cherry-pick, dose response (AID 652057); assay type: functional, cell-based
# [12] = HIV-1 AD8 envelope cell-cell fusion blockers – cherry-pick, dose response (AID 652062); assay type: functional, cell-based;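 note: luciferase signal from cell-cell fusion driven by HIV-1 clade B AD8 Env; potency is for inhibitors of fusion seen as a drop in luminescence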
# [13] = viability loss in CEM21 cells – cell-based, CellTiter-Glo luminescence, cherry-picked, cytotoxicity control for viral fusion inhibitor project, dose response (AID 652042); assay type: functional;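 note: potency for signal decrease meaning cytotoxicity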
# Paired box protein Pax-8 = Paired box protein Pax-8 (Homo sapiens, UniProt Q06710); assay: PAX8 transcriptional activity inhibition in RMG-I – RMG-I cells, luciferase, cherry-pick, dose response (AID 687027); assay type: functional, cell-based;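 note: luciferase reporter driven by Pax8 target thyroperoxidase promoter measured by SteadyGlo luminescence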
# [14] = blockers of HIV-1 ZM109 envelope-driven cell-cell fusion – HeLa effector, CEM target cells, luciferase, cherry-pick, dose response (AID 652058); assay type: functional, cell-based;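 note: luciferase signal from HIV-1 Env mediated cell-cell fusion of effector and target cells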
# [15] = target: Photoreceptor-specific nuclear receptor (Homo sapiens, UniProt Q9Y5X4); assay type: functional, cell-based;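 note: CHO-S cells with Gal4-NCOR and VP16-NR2E3 two-hybrid luciferase reporter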
# Chain of Photoreceptor-specific nuclear receptor (Q9Y5X4 whole entry, the tested form may be a part): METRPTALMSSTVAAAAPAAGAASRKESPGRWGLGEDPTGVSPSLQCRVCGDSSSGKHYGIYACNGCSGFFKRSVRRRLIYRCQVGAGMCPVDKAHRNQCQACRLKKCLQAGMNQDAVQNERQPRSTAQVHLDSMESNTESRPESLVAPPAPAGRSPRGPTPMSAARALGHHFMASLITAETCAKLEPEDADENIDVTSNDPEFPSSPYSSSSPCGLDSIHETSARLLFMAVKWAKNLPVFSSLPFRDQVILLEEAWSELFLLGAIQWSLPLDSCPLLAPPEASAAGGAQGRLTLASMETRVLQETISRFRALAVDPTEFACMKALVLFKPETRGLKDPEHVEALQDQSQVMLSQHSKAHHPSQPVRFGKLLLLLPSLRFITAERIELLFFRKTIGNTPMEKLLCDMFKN
# [16] = off-target signal loss in HeLa-CEM21 co-culture – HeLa F-luc CTL cells, cherry-picked, counter-screen for HIV-1 Env fusion inhibitor project, dose response (AID 652040); assay type: functional, cell-based;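 note: potency for signal decrease marking cytotoxic or nonspecific inhibition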
# [17] = CMV-driven luciferase expression suppression in HEK293 – cell-based, luminescence, dry powder, counter-screen for Pax8 inhibitor project, dose response (AID 743020); assay type: functional
compound,measurement,setting,value
COc1ccc(/C=C2\SC(=O)N(CC(=O)NNC(=O)c3ccccc3O)C2=O)cc1OC,IC50,Exodeoxyribonuclease V,> 119 µM (inactive)
same,IC50,[1],> 119 µM (inactive)
same,IC50,Albumin,> 94.1 µM (inactive)
CC(=O)c1ccc(-c2ccc(Cn3c(C)nc4cc(N)c(C)nc43)cc2)cc1,IC50,Beta-lactamase [2],> 59.6 µM (inactive)
same,IC50,Beta-lactamase [3],> 59.6 µM (inactive)
same,IC50,Beta-lactamase [4],> 59.6 µM (inactive)
CCOC(=O)c1cc(-c2ccccc2)sc1NC(=O)COC(=O)c1cccc(S(N)(=O)=O)c1,IC50,[5],> 50 µM (inactive)
same,EC50,[6],12.8 µM (active)
same,AC50,[7],21.3 µM (active)
same,EC50,[8],> 120 µM (not active)
same,IC50,[9],4.51 µM (active)
same,EC50,[10],13.4 µM (active)
CCC1(O)C(=O)OCc2c1cc1n(c2=O)Cc2cc3c(N)cccc3nc2-1 (stereo not given) [RS-9-Aminocamptothecin],AC50,[11],< 0.26 µM (active)
same,AC50,[12],0.368 µM (active)
same,AC50,[13],2.67 µM (active)
same,AC50,Paired box protein Pax-8,< 0.26 µM (active)
same,AC50,[14],0.857 µM (active)
same,IC50,[15],1.83 µM (active)
same,AC50,[16],< 0.26 µM (active)
same,AC50,[17],< 6.17 µM (active)
